“Also recorded” adds a separate entry of the source.
Tests used:
[1] = system: arecoline-induced increase in blood pressure; test: Investigation for central activity: arecoline test, CNS-penetration in vivo; design: species or system rat; conditions: for ED50: Rattus norvegicus, iv, read-out: ED50, reduction in the arecoline-induced increase in blood pressure
Experimental: Principle: Arecoline has both a central and a peripherally active component. […] Cerebroavailable antimuscarinics block this central effect. Method: Male rats weighing 300 g are anaesthetised i.p. with urethane (1.2 g/kg). The trachea is […], the animals are respirated with an air/oxygen mixture (80 breaths per minute). The blood pressure is recorded after canulation of the carotid artery by means of a pressure recorder (Bell and Howell Type 4-327-I). The test substances are administered through the jugular vein ([…]). […] The arecoline is administered (in doses of 0.3 mg/kg) at 15 minute intervals. After 2 comparison values, the test substance is injected in increasing doses 5 minutes before the next administration of arecoline. The results obtained were compared with the average starting values and determined as the percentage inhibition.

M1 (Cortex) = biological target: T1, M1 (Cortex) (Rattus norvegicus, UniProt P08482); test: Receptor binding test in vitro, M1 (cerebral cortex), [3H]pirenzepine; design: species or system rat (male Wistar); conditions: 1 nM [3H]pirenzepine, 90 min, ambient temperature, pH 7.5
T1 construct: The cerebral cortex, heart and salivary glands were removed, washed and homogenised; from tissue; host or cells: cerebral cortex of male Wistar rats (Chbb: THOM)
T1 sequence (P08482 1-460): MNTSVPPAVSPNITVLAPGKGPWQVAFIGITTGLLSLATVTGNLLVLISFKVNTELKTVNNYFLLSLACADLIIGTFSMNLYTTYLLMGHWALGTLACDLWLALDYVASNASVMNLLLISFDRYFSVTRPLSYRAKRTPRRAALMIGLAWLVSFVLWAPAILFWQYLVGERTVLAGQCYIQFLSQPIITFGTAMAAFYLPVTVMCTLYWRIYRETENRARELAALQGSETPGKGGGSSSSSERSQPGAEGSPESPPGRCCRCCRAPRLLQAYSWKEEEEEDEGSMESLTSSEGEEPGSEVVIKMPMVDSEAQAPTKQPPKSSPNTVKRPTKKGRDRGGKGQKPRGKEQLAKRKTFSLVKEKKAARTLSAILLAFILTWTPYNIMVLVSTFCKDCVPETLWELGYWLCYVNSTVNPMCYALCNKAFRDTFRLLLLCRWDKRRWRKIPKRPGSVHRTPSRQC

M2 (Heart) = biological target: T2, M2 (Heart) (Rattus norvegicus, UniProt P10980); test: Receptor binding test in vitro, M2 (heart), [3H]NMS; design: species or system rat (male Wistar); conditions: 0.3 nM [3H]NMS, 40 min, ambient temperature, pH 7.5
T2 construct: The cerebral cortex, heart and salivary glands were removed, washed and homogenised; from tissue; host or cells: heart of male Wistar rats (Chbb: THOM)
T2 sequence (P10980 1-466): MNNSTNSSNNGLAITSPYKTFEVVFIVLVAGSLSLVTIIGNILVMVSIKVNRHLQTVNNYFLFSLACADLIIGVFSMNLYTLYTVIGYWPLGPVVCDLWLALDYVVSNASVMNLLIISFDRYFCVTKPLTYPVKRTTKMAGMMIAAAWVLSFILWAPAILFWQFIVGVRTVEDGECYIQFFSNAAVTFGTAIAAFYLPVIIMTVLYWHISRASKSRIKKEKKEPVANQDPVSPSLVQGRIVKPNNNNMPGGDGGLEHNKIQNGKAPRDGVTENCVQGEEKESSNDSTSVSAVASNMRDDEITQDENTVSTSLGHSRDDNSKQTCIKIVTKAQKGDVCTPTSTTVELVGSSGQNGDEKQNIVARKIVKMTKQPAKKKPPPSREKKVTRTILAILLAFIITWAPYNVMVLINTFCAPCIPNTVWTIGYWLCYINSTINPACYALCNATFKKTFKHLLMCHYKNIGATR

M3 (Submandibular gland) = biological target: T3, M3 (Submandibular gland) (Rattus norvegicus, UniProt P08483); test: Receptor binding test in vitro, M3 (submandibular/salivary gland), [3H]NMS; design: species or system rat (male Wistar); conditions: 0.3 nM [3H]NMS, 40 min, ambient temperature, pH 7.5
T3 construct: The cerebral cortex, heart and salivary glands were removed, washed and homogenised; from tissue; host or cells: salivary (submandibular) glands of male Wistar rats (Chbb: THOM)
T3 sequence (P08483 whole entry): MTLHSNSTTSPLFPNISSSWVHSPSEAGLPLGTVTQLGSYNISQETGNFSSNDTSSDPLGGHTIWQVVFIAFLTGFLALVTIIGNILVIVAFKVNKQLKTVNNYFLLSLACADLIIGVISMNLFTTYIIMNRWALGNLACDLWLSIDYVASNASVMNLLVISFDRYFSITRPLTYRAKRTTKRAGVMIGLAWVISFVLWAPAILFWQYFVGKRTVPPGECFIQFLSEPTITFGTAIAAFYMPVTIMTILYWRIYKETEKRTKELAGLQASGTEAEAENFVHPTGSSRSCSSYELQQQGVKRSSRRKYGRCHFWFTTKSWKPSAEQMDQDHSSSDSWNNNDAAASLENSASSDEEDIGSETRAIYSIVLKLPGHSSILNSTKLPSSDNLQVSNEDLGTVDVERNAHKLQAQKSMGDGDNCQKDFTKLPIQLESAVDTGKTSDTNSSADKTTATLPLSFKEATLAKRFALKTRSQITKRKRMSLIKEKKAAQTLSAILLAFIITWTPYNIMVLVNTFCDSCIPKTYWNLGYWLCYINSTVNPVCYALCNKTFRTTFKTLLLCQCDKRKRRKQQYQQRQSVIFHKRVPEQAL

[2] = literature: Hunter and Roberts 1988; Hunter et al. 1986; Sutherland et al. 1982; Wishaw 1985; cited from earlier work
[3] = system: 24 months old learning-impaired rats; test: Effect on the memory in the Morris water maze (aged rats); assay type: in vivo, rat; conditions: 24 months old rats, 0.2 mg/kg s.c., 4 days, FIG. 1, vs physiological saline
Experimental: The tests were carried out using the water maze described by R. G. M. Morris in Learn Motive 12: 239-249 (1981) using the test method described therein.
On the first day, rats which were 24 months old and therefore learning-impaired (n=7 per group) were given 0.2 mg/kg of compound D by subcutaneous route whilst another group of these animals were given physiological saline solution (s.c.).

SMILES	ED50 [1] [mg/kg]	Ki (M1 (Cortex)) [nM]	Ki (M2 (Heart)) [nM]	Ki (M3 (Submandibular gland)) [nM]	Learning ability and memory performance (in words) [2]	Memory performance in the Morris water maze (in words) [3]	Effect on arecoline-mediated central effects / increase in blood pressure (in words) ([1]; rat, i.v.)
CCN(CCCC1CCN(CC(=O)N2c3ccccc3C(=O)Nc3cccnc32)CC1)C(=O)C(C)(C)C [Substance F, 5,11-Dihydro-11-[[4-[3-[(2,2-dimethyl-1-oxopropyl)ethylamino]propyl]-1-piperidinyl]acetyl]-6H-pyrido[2,3-b][1,4]benzodiazepin-6-one]	6.5	900	65	1500			
CN1CCN(CC(=O)N2c3ccccc3C(=O)Nc3cccnc32)CC1 [pirenzepine]					a deterioration in learning ability and memory performance was observed		
Cc1scc2c1N(C(=O)CN1CCC(CCCN3CCCCC3)CC1)c1ccccc1NC2=O [N]		7.9	2	6			
CCN(CCCC1CCN(CC(=O)N2c3ccccc3C(=O)Nc3cccnc32)CC1)C(=O)C(C)(C)CC [Substance A, 5,11-dihydro-11-[[4-[3-[(2,2-dimethyl-1-oxobutyl]-ethylamino]-propyl]-1-piperidinyl]acetyl]-6H-pyrido[2,3-b][1,4]benzodiazepin-6-one]	4.5	500	25	750			
CN(CCC1CCCN1C)CC(=O)N1c2ccccc2C(=O)Nc2cccnc21 (stereo not shown) [R]		7.1	3	30			
CCN(CC)CC1COCCN1CCCC(=O)N1c2ccccc2C(=O)Nc2cccnc21 (stereo not shown) [Q]		50	20	50			
CN(CCC1CCCCCN1C)CC(=O)N1c2ccccc2C(=O)Nc2cccnc21 (stereo not shown) [S]		16	3	25			
CCN(CC)CCCCC1CCN(CC(=O)N2c3ccccc3C(=O)Nc3cccnc32)CC1 [I]		20		151			
CCCC(C)(C)C(=O)N(CC)CCCC1CCN(CC(=O)N2c3ccc(Cl)cc3C(=O)Nc3cccnc32)CC1 [Substance D, 5,11-dihydro-8-chloro-11-[[4-[3-[(2,2-dimethyl-1-oxopentyl)-ethylamino]propyl]-1-piperidinyl]-acetyl]-6H-pyrido[2,3-b][1,4]benzodiazepin-6-one]	5	866	25	916		improved memory performance; also recorded: reached the same level as the control groups of young rats	
O=C1Nc2cccnc2N(C(=O)CCC#CCN2CCCCC2)c2ccccc21 [J]		794	120	1820			
CCCC(C)(C)C(=O)N(CC)CCCCC1CCN(CC(=O)N2c3ccccc3C(=O)Nc3cccnc32)CC1 [Substance C, 5,11-dihydro-11-[[4-[4-[(2,2-dimethyl-1-oxopentyl)-ethylamino]butyl]-1-piperidinyl]acetyl]-6H -pyrido [2,3-b][1,4]benzodiazepin-6-one]	2	500	38	875			
Cc1scc2c1N(C(=O)CCC#CCN1CCCCCC1)c1ccccc1NC2=O [P]		35	7.6	30			
CCN(CC)CC1CCCCN1CC(=O)N1c2ccccc2C(=O)Nc2cccnc21 (stereo not shown) [H]				2000			
CCN(CCCC1CCN(CC(=O)N2c3ccc(C)cc3C(=O)Nc3cccnc32)CC1)C(=O)C(C)(C)CC [Substance G, 5,11-dihydro-8-methyl-11-[[4-[3-[(2,2-dimethyl-1oxobutyl)ethylamino]propyl]-1-piperidinyl]acetyl]-6H-pyrido[2,3-b][1,4]benzodiazepin-6-one]	5.1	600	25	750			
O=C1Nc2cccnc2N(C(=O)CCCCCN2CCCCC2)c2ccccc21 [Substance O, 5,11-dihydro-11-[1-oxo-6-(1-piperidinyl)-1-hexyl]-6H-pyrido[2,3-b][1,4]benzodiazepin-10-one, reference compound]		10	5	40			
CCN(CCCC1CCN(CC(=O)N2c3ccc(C)cc3C(=O)Nc3cccnc32)CC1)C(=O)C(C)(C)C [Substance E, 5,11-dihydro-8-methyl-11-[[4-[3-[(2,2-dimethyl-1-oxopropyl)-ethylamino]propyl]-1-piperidinyl]acetyl]-6H-pyrido[2,3-b][1,4]benzodiazepin-6-one]	2.8	1000	100	1500			
CCCC(C)(C)C(=O)N(CC)CCCC1CCN(CC(=O)N2c3ccccc3C(=O)Nc3cccnc32)CC1 [Substance B]	1.3	150	15	300			
O=C1Nc2cccnc2N(C(=O)N2CCCC(CCCN3CCCCC3)C2)c2ccccc21 (stereo not shown) [M]		13	2	13			
CCCN(CCC)CC1CCCCN1CCNC(=O)N1c2ccccc2C(=O)Nc2cccnc21 (stereo not shown) [L]	> 10	30	7.9				no effect on the increase in blood pressure caused by arecoline
